Data published in patent US11492589B2, “Lactobacillus plantarum CJLP475 strain having antiviral and immunomodulatory effects and composition comprising the same” (CJ CHEILJEDANG CORPORATION, priority 2018, dated 2022).

What follows are compounds tested on Lactobacillus plantarum CJLP475 strain (assay: Antibiotic susceptibility test with antibiotic discs). Settings: antibiotic discs on solid Mueller Hinton II medium, 37° C., 24 hours.
Format: cell-based
Procedure: The CJLP475 strain was inoculated into a liquid MRS medium and subjected to a static culture at 37° C. for 24 hours. The thus-cultured bacteria were soaked in sterilized cotton swabs and smeared on a solid Mueller Hinton II medium (Difco), and then antibiotic discs were placed on the medium and incubated at 37° C. for 24 hours. Ampicillin, clindamycin, gentamicin, kanamycin, erythromycin, ampicillin/sulbactam, chloramphenicol, and streptomycin discs (Oxoid, UK) were used as antibiotic discs for the antibiotic test.
For `CC1(C)S[C@@H]2[C@H](NC(=O)[C@H](N)c3ccccc3)C(=O)N2[C@H]1C(=O)O` [Amp10 (Ampicillin), Ampicillin], the “Radius of Growth Inhibition Area Centered Around Antibiotics” value was 7 mm.
`CCC[C@@H]1C[C@@H](C(=O)N[C@@H]([C@H]2O[C@H](SC)[C@H](O)[C@@H](O)[C@H]2O)[C@H](C)Cl)N(C)C1` [C30 (Clindamycin), Clindamycin] was tested, and the “Radius of Growth Inhibition Area Centered Around Antibiotics” value was 8 mm.
In the case of `[H]/N=C(/N)N[C@H]1[C@H](O)[C@@H](O)[C@H](O[C@@H]2O[C@@H](C)[C@](O)(C=O)[C@H]2O[C@@H]2O[C@@H](CO)[C@H](O)[C@@H](O)[C@@H]2NC)[C@@H](N/C(N)=N\[H])[C@@H]1O` [DA2 (Streptomycin), Streptomycin], the “Radius of Growth Inhibition Area Centered Around Antibiotics” value is reported as 4 mm.
With `CC[C@H]1OC(=O)[C@H](C)[C@@H](O[C@H]2C[C@@](C)(OC)[C@@H](O)[C@H](C)O2)[C@H](C)[C@@H](O[C@@H]2O[C@H](C)C[C@H](N(C)C)[C@H]2O)[C@](C)(O)C[C@@H](C)C(=O)[C@H](C)[C@@H](O)[C@]1(C)O` [E15 (Erythromycin), Erythromycin] the “Radius of Growth Inhibition Area Centered Around Antibiotics” value was 9 mm.
`NC[C@H]1O[C@H](O[C@H]2[C@H](O)[C@@H](O[C@H]3O[C@H](CO)[C@@H](O)[C@H](N)[C@H]3O)[C@H](N)C[C@@H]2N)[C@H](O)[C@@H](O)[C@@H]1O` [K30 (Kanamycin), Kanamycin] was tested, and the “Radius of Growth Inhibition Area Centered Around Antibiotics” value was 1.5 mm.
With `O=C(N[C@H](CO)[C@H](O)c1ccc([N+](=O)[O-])cc1)C(Cl)Cl` [S10 (Chloramphenicol), Chloramphenicol] the “Radius of Growth Inhibition Area Centered Around Antibiotics” value was 3 mm.
“Ampicillin/Sulbactam [SAM20 (Ampicillin/Sulbactam)]” was tested, and the “Radius of Growth Inhibition Area Centered Around Antibiotics” value was 8 mm.
With Gentamicin [CN120 (Gentamicin)] the “Radius of Growth Inhibition Area Centered Around Antibiotics” value was 9 mm.
